The test system of assay [1] is multi-drug resistant tuberculosis (MDR-TB). Briefly: Anti-tubercle bacillus activity, liquid medium dilution MIC. It is filed as cell-based. To be noted: for MIC: Bacillus, 168 h, read-out: antibacterial activity (MIC) of β-lactam agent alone.
The test system of assay [2] is extensively drug-resistant tuberculosis (XDR-TB). Described as above. In kind it is cell-based. Conditions: for MIC: Bacillus, 168 h, read-out: antibacterial activity (MIC) of β-lactam agent alone.

Molecules are shown by their SMILES. Converted amounts (≈) assume the structure as drawn.

One may read the MIC as the lowest concentration that inhibits growth of the organism.

`C[C@@H](O)[C@H]1C(=O)N2C(C(=O)O)=C(S[C@@H]3CN[C@H](C(=O)N(C)C)C3)[C@H](C)[C@H]12` [MEPM, meropenem, reference compound]: the MIC in assay [1] was 16 µg/mL (≈ 41.7 µM); in assay [2], 4 µg/mL (≈ 10.4 µM).
On the same counts, the results for `C[C@@H](O)[C@H]1C(=O)N2C(C(=O)O)=C(SC3CN(C4=NCCS4)C3)[C@H](C)[C@H]12` [TBPM, tebipenem, reference compound] are 4 µg/mL (≈ 10.4 µM) and 1 µg/mL (≈ 2.61 µM).
For `C[C@@H](O)[C@H]1C(=O)N2C(C(=O)[O-])=C(SC3Cn4cnc[n+]4C3)[C@H](C)[C@H]12` (some centres unmarked) [BIPM, biapenem, reference compound], the MIC is 16 µg/mL (≈ 45.7 µM) in assay [1] and 2 µg/mL (≈ 5.71 µM) in assay [2].
For the molecule `NCCONC(=O)[C@@H]1CC[C@@H]2CN1C(=O)N2OS(=O)(=O)O` [Example 59, (2S,5R)—N-(2-Aminoethoxy)-7-oxo-6-(sulfooxy)-1,6-diazabicyclo[3.2.1]octane-2-carboxamide], the “antibacterial activity (MIC) of ABPC in combinatorial use” value in assay [1] (ABPC + 4 μg/mL compound, MDR-TB) amounted to 32 µg/mL; in assay [2] (ABPC + 4 μg/mL compound, XDR-TB), 16 µg/mL. The “antibacterial activity (MIC) of AMPC in combinatorial use” value in assay [1] (AMPC + 4 μg/mL compound, MDR-TB) amounted to 64 µg/mL; in assay [2] (AMPC + 4 μg/mL compound, XDR-TB) it was 16 µg/mL. Also, the “antibacterial activity (MIC) of BIPM in combinatorial use” value in assay [1] (BIPM + 4 μg/mL compound, MDR-TB) was found to be 4 µg/mL; in assay [2] (BIPM + 4 μg/mL compound, XDR-TB), 1 µg/mL. The “antibacterial activity (MIC) of MEPM in combinatorial use” value in assay [1] (MEPM + 4 μg/mL compound, MDR-TB) came out at 8 µg/mL; in assay [2] (MEPM + 4 μg/mL compound, XDR-TB), 1 µg/mL. In addition, the “antibacterial activity (MIC) of TBPM in combinatorial use” value was 2 µg/mL in assay [1] (TBPM + 4 μg/mL compound, MDR-TB) and 0.5 µg/mL in assay [2] (TBPM + 4 μg/mL compound, XDR-TB).
Consider `CC1(C)S[C@@H]2[C@H](NC(=O)[C@H](N)c3ccccc3)C(=O)N2[C@H]1C(=O)O` [ABPC, ampicillin, reference compound], for which the MIC in assay [1] stood at 128 µg/mL (≈ 366 µM); in assay [2] it was 32 µg/mL (≈ 91.6 µM).
Consider `CC1(C)S[C@@H]2[C@H](NC(=O)[C@H](N)c3ccc(O)cc3)C(=O)N2[C@H]1C(=O)O` [AMPC, amoxicillin, reference compound], for which the minimum inhibitory concentration (MIC) in assay [1] was 128 µg/mL (≈ 350 µM); in assay [2] it was 64 µg/mL (≈ 175 µM).
